# In ChEMBL document CHEMBL4190187, “Discovery of pyrazolopyrimidine derivatives as novel inhibitors of ataxia telangiectasia and rad3 related protein (ATR)” (Bioorg Med Chem Lett, 2017):
# Experiments:
# [1] = target: Serine/threonine-protein kinase ICK (Homo sapiens) (UniProt Q9UPZ9); test: Inhibition of recombinant human ICK (1 to 312 residues) at 1 uM using RRRFRPASPLRGPPK as substrate after 120 mins in presence of [gamma-33P]ATP by scintillation counting method
# [2] = tested on: Macrophage colony-stimulating factor 1 receptor (Homo sapiens), P07333 [Y969C]; test: Inhibition of recombinant human Fms Y969C mutant (538 to end residues) at 1 uM using EEEEYEEEEEEYYIIEEEEEEYEEEEEEYYEEEEEEKKKK as substrate after 40 mins in presence of [gamma-33P]ATP by scintillation counting method
# [3] = target: Ephrin type-A receptor 3 (Homo sapiens) (UniProt P29320); test: Inhibition of recombinant human EPHA3 (578 to end residues) at 1 uM using poly(Glu,Tyr) 4:1 as substrate after 40 mins in presence of [gamma-33P]ATP by scintillation counting method
# Ephrin type-A receptor 3 (Homo sapiens), sequence (P29320 whole entry): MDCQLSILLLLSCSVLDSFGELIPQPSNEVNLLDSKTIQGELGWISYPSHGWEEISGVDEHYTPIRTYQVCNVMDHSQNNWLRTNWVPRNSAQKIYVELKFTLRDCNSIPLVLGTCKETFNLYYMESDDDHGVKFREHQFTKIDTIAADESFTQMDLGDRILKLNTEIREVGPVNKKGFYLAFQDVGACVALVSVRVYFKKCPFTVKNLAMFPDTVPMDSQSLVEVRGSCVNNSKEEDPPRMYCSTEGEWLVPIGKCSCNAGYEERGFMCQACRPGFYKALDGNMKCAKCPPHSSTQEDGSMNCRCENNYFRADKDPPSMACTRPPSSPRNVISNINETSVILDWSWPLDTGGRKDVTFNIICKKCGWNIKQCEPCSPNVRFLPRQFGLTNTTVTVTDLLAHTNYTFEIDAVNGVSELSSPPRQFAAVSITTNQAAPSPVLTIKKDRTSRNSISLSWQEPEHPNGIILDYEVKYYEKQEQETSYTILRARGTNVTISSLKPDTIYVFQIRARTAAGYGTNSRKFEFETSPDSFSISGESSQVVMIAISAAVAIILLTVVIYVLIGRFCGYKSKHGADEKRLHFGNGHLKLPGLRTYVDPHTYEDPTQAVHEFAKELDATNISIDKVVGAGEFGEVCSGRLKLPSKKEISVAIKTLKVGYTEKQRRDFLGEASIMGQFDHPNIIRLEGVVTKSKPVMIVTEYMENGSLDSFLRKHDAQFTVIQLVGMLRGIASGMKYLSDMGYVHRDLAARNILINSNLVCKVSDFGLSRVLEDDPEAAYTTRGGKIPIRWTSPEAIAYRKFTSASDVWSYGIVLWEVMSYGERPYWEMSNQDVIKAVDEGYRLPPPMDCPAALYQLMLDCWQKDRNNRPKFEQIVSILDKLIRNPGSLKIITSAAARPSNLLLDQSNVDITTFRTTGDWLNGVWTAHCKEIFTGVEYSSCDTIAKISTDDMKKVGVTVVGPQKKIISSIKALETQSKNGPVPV
# [4] = target: Serine/threonine-protein kinase 3 (Homo sapiens) (UniProt Q13188); test: Inhibition of recombinant human MST2 (2 to end residues) at 1 uM using myelin basic protein as substrate after 40 mins in presence of [gamma-33P]ATP by scintillation counting method
# [5] = target: Activated CDC42 kinase 1 (Homo sapiens) (UniProt Q07912); test: Inhibition of recombinant human ACK1 (1 to 389 residues) at 1 uM using EFPIYDFLPAKKK as substrate after 40 mins in presence of [gamma-33P]ATP by scintillation counting method
# [6] = target: Mitogen-activated protein kinase kinase kinase kinase 4 (Homo sapiens) (UniProt O95819); test: Inhibition of recombinant human MAP4K4 (1 to 328 residues) at 1 uM using RLGRDKYKTLRQIRQ as substrate after 40 mins in presence of [gamma-33P]ATP by scintillation counting method
# Mitogen-activated protein kinase kinase kinase kinase 4 (Homo sapiens), sequence (O95819 2-1239 limits assumed): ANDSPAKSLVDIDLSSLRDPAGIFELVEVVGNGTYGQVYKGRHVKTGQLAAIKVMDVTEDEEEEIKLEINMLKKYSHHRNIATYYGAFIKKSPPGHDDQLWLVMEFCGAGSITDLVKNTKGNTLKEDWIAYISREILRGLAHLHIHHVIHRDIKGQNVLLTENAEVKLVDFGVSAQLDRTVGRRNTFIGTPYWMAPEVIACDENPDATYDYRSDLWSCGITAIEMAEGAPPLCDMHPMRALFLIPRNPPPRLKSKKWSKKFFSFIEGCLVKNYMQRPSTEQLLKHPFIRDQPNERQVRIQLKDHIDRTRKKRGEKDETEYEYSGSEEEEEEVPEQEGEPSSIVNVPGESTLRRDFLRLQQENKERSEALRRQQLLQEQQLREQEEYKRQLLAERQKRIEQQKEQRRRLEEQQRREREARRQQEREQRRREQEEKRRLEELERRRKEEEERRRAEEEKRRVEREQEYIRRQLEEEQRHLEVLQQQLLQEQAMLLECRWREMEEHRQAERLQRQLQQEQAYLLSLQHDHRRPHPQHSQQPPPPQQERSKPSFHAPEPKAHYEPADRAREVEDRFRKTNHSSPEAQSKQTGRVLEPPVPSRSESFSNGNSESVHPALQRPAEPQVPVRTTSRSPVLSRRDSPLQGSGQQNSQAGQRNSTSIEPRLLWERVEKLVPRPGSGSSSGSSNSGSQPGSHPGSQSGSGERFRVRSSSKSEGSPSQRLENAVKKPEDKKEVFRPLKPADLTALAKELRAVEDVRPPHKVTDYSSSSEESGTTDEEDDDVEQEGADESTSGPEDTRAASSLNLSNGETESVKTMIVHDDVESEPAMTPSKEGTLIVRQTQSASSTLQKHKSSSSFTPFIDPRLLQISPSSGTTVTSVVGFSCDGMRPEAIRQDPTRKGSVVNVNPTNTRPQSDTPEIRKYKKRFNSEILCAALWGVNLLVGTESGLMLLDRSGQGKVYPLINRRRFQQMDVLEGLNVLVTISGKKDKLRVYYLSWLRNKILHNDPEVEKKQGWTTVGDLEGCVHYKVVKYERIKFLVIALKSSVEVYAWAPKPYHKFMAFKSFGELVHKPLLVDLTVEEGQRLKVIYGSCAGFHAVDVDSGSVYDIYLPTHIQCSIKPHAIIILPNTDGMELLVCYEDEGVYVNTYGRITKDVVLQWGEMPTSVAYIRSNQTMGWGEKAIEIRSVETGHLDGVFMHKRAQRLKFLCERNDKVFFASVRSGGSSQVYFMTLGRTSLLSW
# [7] = target: Mitogen-activated protein kinase kinase kinase 20 (Homo sapiens) (UniProt Q9NYL2); test: Inhibition of recombinant full-length human ZAK at 1 uM using myelin basic protein as substrate after 40 mins in presence of [gamma-33P]ATP by scintillation counting method
# [8] = target: Interferon-induced, double-stranded RNA-activated protein kinase (Homo sapiens) (UniProt P19525); test: Inhibition of recombinant human PKR (501 to end residues) at 1 uM using AKRRRLSSLRA as substrate after 40 mins in presence of [gamma-33P]ATP by scintillation counting method
# [9] = target: Serine/threonine-protein kinase PAK 4 (Homo sapiens) (UniProt O96013); test: Inhibition of recombinant human PAK4 (295 to end residues) at 1 uM using myelin basic protein as substrate after 40 mins in presence of [gamma-33P]ATP by scintillation counting method
# [10] = target: Serine/threonine-protein kinase PAK 6 (Homo sapiens) (UniProt Q9NQU5); test: Inhibition of recombinant human PAK6 (382 to end residues) at 1 uM using RRRLSFAEPG as substrate after 40 mins in presence of [gamma-33P]ATP by scintillation counting method
# [11] = Metabolic stability in mouse liver microsomes assessed as compound remaining at 1 uM in presence of NADPH as cofactor measured after 30 mins by LC-MS/MS method; assay type: ADME, microsome; conditions: read-out: Stability
# [12] = target: Mitogen-activated protein kinase 13 (Homo sapiens) (UniProt O15264); test: Inhibition of recombinant full-length human SAPK4 at 1 uM using myelin basic protein as substrate after 40 mins in presence of [gamma-33P]ATP by scintillation counting method
# [13] = tested on: Fibroblast growth factor receptor 1 (Homo sapiens), P11362 [V561M]; test: Inhibition of recombinant human FGFR1 V561M mutant (456 to 765 residues) at 1 uM using GGEEEEYFELVKKKK as substrate after 40 mins in presence of [gamma-33P]ATP by scintillation counting method
# [14] = tested on: Platelet-derived growth factor receptor alpha (Homo sapiens), P16234 [D842V]; test: Inhibition of recombinant human PDGFRalpha D842V mutant (550 to end residues) at 1 uM using GGMEDIYFEFMGGKKK as substrate after 40 mins in presence of [gamma-33P]ATP by scintillation counting method
# Platelet-derived growth factor receptor alpha (Homo sapiens), P16234 [D842V], sequence (P16234 whole entry D842V): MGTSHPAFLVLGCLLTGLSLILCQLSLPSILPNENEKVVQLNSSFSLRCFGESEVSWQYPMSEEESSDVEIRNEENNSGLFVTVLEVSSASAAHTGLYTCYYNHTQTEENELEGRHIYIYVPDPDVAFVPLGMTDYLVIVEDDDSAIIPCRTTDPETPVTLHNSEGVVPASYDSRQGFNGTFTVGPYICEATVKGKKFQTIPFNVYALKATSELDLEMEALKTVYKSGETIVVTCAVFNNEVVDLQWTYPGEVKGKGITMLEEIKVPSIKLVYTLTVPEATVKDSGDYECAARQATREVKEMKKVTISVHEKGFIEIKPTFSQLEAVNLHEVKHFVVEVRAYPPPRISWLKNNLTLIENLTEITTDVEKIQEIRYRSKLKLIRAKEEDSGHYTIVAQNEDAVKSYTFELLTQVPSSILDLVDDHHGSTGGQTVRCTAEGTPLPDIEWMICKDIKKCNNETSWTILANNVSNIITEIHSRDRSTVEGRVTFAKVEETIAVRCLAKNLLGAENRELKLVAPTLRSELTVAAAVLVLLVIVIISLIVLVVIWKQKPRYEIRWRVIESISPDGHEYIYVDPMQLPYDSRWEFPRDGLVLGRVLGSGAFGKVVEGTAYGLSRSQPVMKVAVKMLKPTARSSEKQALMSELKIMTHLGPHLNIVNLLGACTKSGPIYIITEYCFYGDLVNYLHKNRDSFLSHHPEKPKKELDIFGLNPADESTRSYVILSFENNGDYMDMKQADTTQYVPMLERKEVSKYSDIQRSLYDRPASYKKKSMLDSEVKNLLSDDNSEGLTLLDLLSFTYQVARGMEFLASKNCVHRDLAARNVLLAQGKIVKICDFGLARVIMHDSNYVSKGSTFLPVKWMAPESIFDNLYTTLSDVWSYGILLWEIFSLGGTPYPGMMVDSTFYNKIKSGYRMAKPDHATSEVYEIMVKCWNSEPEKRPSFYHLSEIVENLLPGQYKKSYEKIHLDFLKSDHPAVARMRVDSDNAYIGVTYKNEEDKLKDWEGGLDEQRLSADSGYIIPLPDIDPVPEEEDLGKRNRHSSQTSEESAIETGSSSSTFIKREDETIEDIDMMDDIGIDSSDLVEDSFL
# [15] = target: 5'-AMP-activated protein kinase catalytic subunit alpha-2 (Homo sapiens) (UniProt P54646); test: Inhibition of recombinant full-length human AMPKalpha2 at 1 uM using AMARAASAAALARRR as substrate after 40 mins in presence of [gamma-33P]ATP by scintillation counting method
# 5'-AMP-activated protein kinase catalytic subunit alpha-2 (Homo sapiens), sequence (P54646 whole entry, looked up): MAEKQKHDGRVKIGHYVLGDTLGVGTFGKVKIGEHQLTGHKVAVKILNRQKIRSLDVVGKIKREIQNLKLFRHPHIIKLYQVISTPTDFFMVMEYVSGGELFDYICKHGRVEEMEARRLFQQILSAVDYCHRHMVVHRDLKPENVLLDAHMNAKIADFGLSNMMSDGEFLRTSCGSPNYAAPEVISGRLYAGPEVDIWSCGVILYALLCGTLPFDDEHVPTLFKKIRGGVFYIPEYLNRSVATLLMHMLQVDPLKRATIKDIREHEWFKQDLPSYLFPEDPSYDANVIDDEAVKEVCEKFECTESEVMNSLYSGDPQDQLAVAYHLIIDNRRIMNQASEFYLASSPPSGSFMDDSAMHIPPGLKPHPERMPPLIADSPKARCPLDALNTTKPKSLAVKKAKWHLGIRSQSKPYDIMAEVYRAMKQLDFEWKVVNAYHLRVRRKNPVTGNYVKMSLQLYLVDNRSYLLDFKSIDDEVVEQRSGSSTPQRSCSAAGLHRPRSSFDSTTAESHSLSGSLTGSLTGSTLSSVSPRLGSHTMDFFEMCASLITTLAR
# [16] = target: Macrophage colony-stimulating factor 1 receptor (Homo sapiens) (UniProt P07333); test: Inhibition of recombinant human Fms (538 to end residues) at 1 uM using KKKSPGEYVNIEFG as substrate after 40 mins in presence of [gamma-33P]ATP by scintillation counting method
# [17] = target: Myosin light chain kinase 2, skeletal/cardiac muscle (Homo sapiens) (UniProt Q9H1R3); test: Inhibition of full-length recombinant human MYLK2 at 1 uM using KKLNRTLSFAEPG as substrate after 40 mins in presence of [gamma-33P]ATP by scintillation counting method
# [18] = target: Mitogen-activated protein kinase kinase kinase 7 (Homo sapiens) (UniProt O43318); test: Inhibition of recombinant human TAK1 (1 to 303 residues) at 1 uM using casein as substrate after 40 mins in presence of [gamma-33P]ATP by scintillation counting method
# [19] = target: Protein kinase C gamma type (Homo sapiens) (UniProt P05129); test: Inhibition of recombinant full-length human PKCgamma at 1 uM using histone H1 as substrate after 40 mins in presence of [gamma-33P]ATP by scintillation counting method
# [20] = target: Serine/threonine-protein kinase 32C (Homo sapiens) (UniProt Q86UX6); test: Inhibition of recombinant full-length human STK32C at 1 uM using casein as substrate after 120 mins in presence of [gamma-33P]ATP by scintillation counting method
# [21] = tested on: Mitogen-activated protein kinase 14 (Homo sapiens), Q16539 [T106M]; test: Inhibition of recombinant full-length human SAPK2a T106M mutant at 1 uM using myelin basic protein as substrate after 40 mins in presence of [gamma-33P]ATP by scintillation counting method
# [22] = target: Activin receptor type-2A (Homo sapiens) (UniProt P27037); test: Inhibition of recombinant human ACTR2 (162 to end residues) at 1 uM using casein as substrate after 120 mins in presence of [gamma-33P]ATP by scintillation counting method
# Activin receptor type-2A (Homo sapiens), sequence (P27037 whole entry): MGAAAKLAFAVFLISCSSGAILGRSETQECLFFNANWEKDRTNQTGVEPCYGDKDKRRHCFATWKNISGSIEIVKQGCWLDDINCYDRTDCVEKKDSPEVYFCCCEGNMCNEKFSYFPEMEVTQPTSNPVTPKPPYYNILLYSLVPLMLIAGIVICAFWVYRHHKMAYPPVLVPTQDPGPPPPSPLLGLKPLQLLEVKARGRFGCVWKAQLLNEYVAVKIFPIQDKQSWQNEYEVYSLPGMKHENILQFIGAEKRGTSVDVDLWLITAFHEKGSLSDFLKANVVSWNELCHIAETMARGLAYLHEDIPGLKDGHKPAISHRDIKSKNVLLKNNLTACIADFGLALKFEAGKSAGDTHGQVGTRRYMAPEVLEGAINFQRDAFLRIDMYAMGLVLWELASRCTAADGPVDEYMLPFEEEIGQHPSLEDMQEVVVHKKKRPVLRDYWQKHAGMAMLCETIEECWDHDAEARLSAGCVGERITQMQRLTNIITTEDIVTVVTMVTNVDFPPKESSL
# [23] = target: Ephrin type-B receptor 1 (Homo sapiens) (UniProt P54762); test: Inhibition of recombinant human EPHB1 (564 to end residues) at 1 uM using KVEKIGEGTYGVVYK as substrate after 40 mins in presence of [gamma-33P]ATP by scintillation counting method
# Homo sapiens = organism: Homo sapiens; test: Inhibition of recombinant full-length human p110a/recombinant p65a (1 to 571 residues) at 1 uM using phosphatidylinositol 4,5-bisphosphate as substrate after 40 mins in presence of [gamma-33P]ATP by scintillation counting method
# Serine/threonine-protein kinase ICK (Homo sapiens), sequence (Q9UPZ9 whole entry, the tested form may be a part): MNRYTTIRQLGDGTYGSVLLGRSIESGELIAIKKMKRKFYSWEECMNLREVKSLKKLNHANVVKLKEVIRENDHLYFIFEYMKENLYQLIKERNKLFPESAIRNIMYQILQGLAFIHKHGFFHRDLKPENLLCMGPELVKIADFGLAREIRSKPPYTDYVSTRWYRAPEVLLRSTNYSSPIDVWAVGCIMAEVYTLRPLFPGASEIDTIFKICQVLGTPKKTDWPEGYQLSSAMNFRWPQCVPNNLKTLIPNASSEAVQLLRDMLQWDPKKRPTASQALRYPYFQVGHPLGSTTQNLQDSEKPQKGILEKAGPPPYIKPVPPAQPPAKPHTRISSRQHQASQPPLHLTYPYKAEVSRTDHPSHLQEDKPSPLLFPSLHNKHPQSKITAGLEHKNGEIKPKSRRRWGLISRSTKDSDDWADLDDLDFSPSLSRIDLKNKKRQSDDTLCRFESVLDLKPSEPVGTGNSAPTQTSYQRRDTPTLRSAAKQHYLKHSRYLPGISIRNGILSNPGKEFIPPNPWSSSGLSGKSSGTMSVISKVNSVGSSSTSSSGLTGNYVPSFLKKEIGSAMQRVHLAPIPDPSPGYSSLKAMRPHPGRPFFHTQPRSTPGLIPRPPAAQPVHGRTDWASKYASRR
compound,measurement,setting,value
CS(=O)(=O)c1ccc(-n2nc(-c3cnc4[nH]ccc4c3)c3c(N)ncnc32)cc1,inhibition,[1],-8%
same,inhibition,[2],69%
same,inhibition,[3],7%
same,inhibition,[4],8%
same,inhibition,[5],44%
same,inhibition,[6],-8%
same,inhibition,[7],17%
same,inhibition,[8],13%
same,inhibition,[9],45%
same,inhibition,[10],7%
same,"remaining at 0.5 h, 1 µM",[11],79%
same,inhibition,[12],-5%
same,inhibition,[13],12%
same,inhibition,[14],47%
same,inhibition,[15],-9%
same,inhibition,[16],76%
same,inhibition,[17],18%
same,inhibition,[18],-3%
same,inhibition,[19],3%
same,inhibition,[20],5%
same,inhibition,[21],0%
same,inhibition,[22],6%
same,inhibition,[23],22%
same,inhibition,Homo sapiens,8%
